According to patent US20230322722A1, “MODULATORS OF MYC FAMILY PROTO-ONCOGENE PROTEIN” (Nalo Therapeutics, priority 2020, published 2023):

How the values were obtained:
[1] = target: T1, MycN protein (Homo sapiens, UniProt P04198); test: Degradation of MycN protein, Western blot, SKNBE2 cells (Example 160); format: cell-based
T1 construct: either 2×10^6 of L-363 (human leukemia cell line) or SKNBE2 (neuroblastoma cell line) cells; endogenous in cells; host or cells: SKNBE2 / SK-N-BE(2) neuroblastoma cells
T1 sequence (P04198 1-464): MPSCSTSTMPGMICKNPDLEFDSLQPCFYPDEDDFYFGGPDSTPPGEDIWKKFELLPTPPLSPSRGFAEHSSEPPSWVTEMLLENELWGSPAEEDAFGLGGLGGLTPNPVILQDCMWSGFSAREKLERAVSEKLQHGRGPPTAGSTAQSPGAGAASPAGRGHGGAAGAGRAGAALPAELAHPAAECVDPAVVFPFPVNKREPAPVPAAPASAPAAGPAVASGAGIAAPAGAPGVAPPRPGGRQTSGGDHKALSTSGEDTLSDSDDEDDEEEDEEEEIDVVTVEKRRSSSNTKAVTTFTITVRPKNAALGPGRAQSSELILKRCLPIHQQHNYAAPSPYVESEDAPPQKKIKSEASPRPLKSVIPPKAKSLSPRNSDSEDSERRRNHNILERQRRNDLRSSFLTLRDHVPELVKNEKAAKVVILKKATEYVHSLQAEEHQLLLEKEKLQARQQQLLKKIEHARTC
Summary of the method: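 L-363 or SKNBE2 cells (passage <40, mostly <30) at 1×10^6 cells/mL in RPMI 1640/10% FBS were exposed 6 h to compound added from a 1 mM stock. RIPA lysates (25–30 ug protein) were analysed by SDS-PAGE and immunoblot with 1:500 primary antibody, with protein level quantified by band densitometry.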

[2] = target: T2, MycC protein (Homo sapiens, UniProt P01106); test: Degradation of MycC protein, Western blot, L-363 cells (Example 160); format: cell-based; conditions: 6 h
T2 construct: either 2×10^6 of L-363 (human leukemia cell line) or SKNBE2 (neuroblastoma cell line) cells; endogenous in cells; host or cells: L-363 / L363 human leukemia cells
T2 sequence (P01106 whole entry): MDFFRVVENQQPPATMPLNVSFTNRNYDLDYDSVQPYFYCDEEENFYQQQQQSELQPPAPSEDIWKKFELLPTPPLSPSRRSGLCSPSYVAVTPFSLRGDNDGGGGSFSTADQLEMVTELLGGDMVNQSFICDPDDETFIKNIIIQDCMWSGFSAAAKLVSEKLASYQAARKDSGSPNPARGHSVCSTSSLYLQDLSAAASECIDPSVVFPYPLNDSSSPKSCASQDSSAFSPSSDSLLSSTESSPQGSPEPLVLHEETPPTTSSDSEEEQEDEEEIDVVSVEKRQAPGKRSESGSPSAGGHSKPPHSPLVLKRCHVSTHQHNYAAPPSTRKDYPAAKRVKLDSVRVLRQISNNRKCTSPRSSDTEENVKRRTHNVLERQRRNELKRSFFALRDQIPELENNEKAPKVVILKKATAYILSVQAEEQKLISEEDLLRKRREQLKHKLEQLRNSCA
Method: In a T150 flask was plated either 2×10^6 of L-363 (human leukemia cell line) or SKNBE2 (neuroblastoma cell line) cells in a total of 30 mL containing Roswell Park Memorial Institute (RPMI) 1640 Medium (Thermo Fisher, Cat. #11875-085), 10% Fetal Bovine Serum (FBS, Thermo Fisher: Cat. #10437-028), 1% Penicillin/streptomycin (Thermo Fisher: Cat. #10378016), and 1% Amophotericin B (Thermo Fisher, Cat. #15290026). The cells were split every 72 hours by reseeding the L-363 or SKNBE2 cells, and the passage number was noted. It is noteworthy that cell cultures that were above 40 passages were not used, and most experiments were done with cells of less than 30 passages.
In a 6-well cell culture plate, a total of 3 mL of either 1×10^6 cells/mL of L-363 or SKNBE2 cells were seeded, resulting in a total of 3×10^6 cells per well. To each well containing 3 mL of either L-363 or SKNBE2 cell line was added 6 uL of MycN modulating compound (1 mM) and the resulting plate was shaken from left to right, and not swirled. After 6 hours, the cells were placed in a 15 mL falcon tube and spun at 500 Gs at 4° C. in a swinging bucket centrifuge. The medium was then carefully removed without disturbing the pellet. The pellet was then washed with 3 mLs of chilled phosphate buffered saline (PBS) and subjected to the spin cycle. PBS was then removed and the pellet was lysed in 200 uL of radioimmunoprecipitation (RIPA) lysis buffer (Thermo Fisher: Cat. #899000) that is supplemented with protease and phosphatase inhibitors (Thermo Fisher: Cat. #A32959). The cell lysate was then subjected to spinning in a centrifuge for 10 minutes at 13000 G at 4° C. The supernatant was then carefully transferred to a fresh eppendorf tube without disturbing the pellet (˜180 uL). The protein concentration of the cell lysate was then determined by using a bicinchoninic acid (BCA assay) according to manufacturer's protocol (Thermo Fisher: Cat. #23227).
Cell lysate, approximately 25 ug-30 ug, was loaded per well in a 4-20% polyacrylamide gel (Biorad. Cat. #5671094). After running the dye front off of the gel, the gel was transferred to a nitrocellulose membrane (Biorad: Cat. #1704159) using the transblot turbo system (Biorad: Cat. #1704150) according to manufacturer's protocol. After transferring for 30 minutes, the membrane was blocked with 5% BSA for 1 hour at room temperature. The BSA was then washed off and the primary antibody of choice (1:500) was added, and the membrane was incubated with the primary antibody at 4° C. for overnight. The next morning, the primary antibody was removed and the membrane was washed with 1×-TBST for 10 minutes and repeated three more times. Following the last wash, a secondary antibody (Molecular Devices. Cat. #R8209 or R8208) was added at 1:5000 dilution and incubated for 1 hour at room temperature. Following the incubation with the secondary antibody, the membrane was washed with 1×-TBST for 10 minutes and repeated three more times. Following the last wash, the membrane was washed with de-ionized water twice and dried for at least two hours. Once the membrane is completely dry, the Molecular Devices Spectra Max western system was used to observe the bands. The western image was saved and the band density was measured with ImageJ software.

inhibition at 2 µM ([1]; SKNBE2, 6 h) [%] | inhibition at 2 µM [2] [%] | Structure (SMILES) | inhibition at 2 µM ([1]; 6 h) [%]
50 to 79 | 80 to 100 | CN(c1nccc(Nc2cc(C3CC3)[nH]n2)n1)[C@H]1CC[C@H](NC(=O)Cc2ccnc(C#N)c2)CC1 [Compound 124, 2-(2-cyanopyridin-4-yl)-N-((1R,4R)-4-((4-((5-cyclopropyl-1H-pyrazol-3-yl)amino)pyrimidin-2-yl)(methyl)amino)cyclohexyl)acetamide] | –
80 to 100 | 80 to 100 | CN(c1nccc(Nc2cc(C3CC3)[nH]n2)n1)[C@H]1CC[C@H](NC(=O)Cc2cccc(C#N)n2)CC1 [Compound 125, 2-(6-cyanopyridin-2-yl)-N-((1R,4R)-4-((4-((5-cyclopropyl-1H-pyrazol-3-yl)amino)pyrimidin-2-yl)(methyl)amino)cyclohexyl)acetamide] | –
< 20 | 80 to 100 | COc1ccc(C#N)cc1CC(=O)N[C@H]1CC[C@H](N(C)c2nccc(Nc3cc(C4CC4)[nH]n3)n2)CC1 [Compound 126, 2-(5-cyano-2-methoxyphenyl)-N-((1R,4R)-4-((4-((5-cyclopropyl-1H-pyrazol-3-yl)amino)pyrimidin-2-yl)(methyl)amino)cyclohexyl)acetamide] | –
80 to 100 | 80 to 100 | CN(c1nccc(Nc2cc(C3CC3)[nH]n2)n1)[C@H]1CC[C@H](C(=O)NCc2cccc(C(F)(F)F)c2)CC1 [Compound 127, (1R,4R)-4-((4-((5-cyclopropyl-1H-pyrazol-3-yl)amino)pyrimidin-2-yl)(methyl)amino)-N-(3-(trifluoromethyl)benzyl)cyclohexane-1-carboxamide] | –
< 20 | 50 to 79 | CN(c1nccc(Nc2cn(C3CCCC3)cn2)n1)[C@H]1CC[C@H](NC(=O)C2Cc3ccccc3C2)CC1 [Compound 130, N-((1R,4R)-4-((4-((1-cyclopentyl-1H-imidazol-4-yl)amino)pyrimidin-2-yl)(methyl)amino)cyclohexyl)-2,3-dihydro-1H-indene-2-carboxamide] | –
20 to 49 | < 20 | CN(c1nccc(Oc2cc(C3CCCC3)[nH]n2)n1)C1CCC(NC(=O)Cc2cccc(C(F)(F)F)c2)CC1 [Compound 131, N-((1R,4R)-4-((4-((5-cyclopentyl-1H-pyrazol-3-yl)oxy)pyrimidin-2-yl)(methyl)amino)cyclohexyl)-2-(3-(trifluoromethyl)phenyl)acetamide] | –
80 to 100 | 80 to 100 | CN(c1nccc(Nc2cc(C3CC3)[nH]n2)n1)[C@H]1CC[C@H](NC(=O)c2cccc(S(C)(=O)=O)c2)CC1 [Compound 132, N-((1R,4R)-4-((4-((5-cyclopropyl-1H-pyrazol-3-yl)amino)pyrimidin-2-yl)(methyl)amino)cyclohexyl)-3-(methylsulfonyl)benzamide] | –
80 to 100 | 80 to 100 | CN(c1nccc(Nc2cc(C3CC3)[nH]n2)n1)C1CCC(CC(=O)Nc2cn(C3COC3)cn2)CC1 [Compound 133, 2-((1R,4R)-4-((4-((5-cyclopropyl-1H-pyrazol-3-yl)amino)pyrimidin-2-yl)(methyl)amino)cyclohexyl)-N-(1-(oxetan-3-yl)-1H-imidazol-4-yl)acetamide] | –
< 20 | 80 to 100 | CN(c1nccc(Nc2cc(C3CC3)[nH]n2)n1)[C@H]1CC[C@H](NC(=O)c2ccc(S(C)(=O)=O)cn2)CC1 [Compound 135, N-((1R,4R)-4-((4-((5-cyclopropyl-1H-pyrazol-3-yl)amino)pyrimidin-2-yl)(methyl)amino)cyclohexyl)-5-(methylsulfonyl)picolinamide] | –
< 20 | 20 to 49 | CN(c1nccc(Nc2cc(C3CC3)[nH]n2)n1)[C@H]1CC[C@H](NC(=O)c2ccc(C#N)cn2)CC1 [Compound 137, 5-cyano-N-((1R,4R)-4-((4-((5-cyclopropyl-1H-pyrazol-3-yl)amino)pyrimidin-2-yl)(methyl)amino)cyclohexyl)picolinamide] | –
80 to 100 | 80 to 100 | Cn1nnc2cc(C(=O)N[C@H]3CC[C@H](N(C)c4nccc(Nc5cc(C6CC6)[nH]n5)n4)CC3)ccc21 [Compound 139, N-((1R,4R)-4-((4-((5-cyclopropyl-1H-pyrazol-3-yl)amino)pyrimidin-2-yl)(methyl)amino)cyclohexyl)-1-methyl-1H-benzo[d][1,2,3]triazole-5-carboxamide] | –
80 to 100 | 80 to 100 | Cn1cc(C(=O)N[C@H]2CC[C@H](N(C)c3nccc(Nc4cc(C5CC5)[nH]n4)n3)CC2)nn1 [Compound 140, N-((1R,4R)-4-((4-((5-cyclopropyl-1H-pyrazol-3-yl)amino)pyrimidin-2-yl)(methyl)amino)cyclohexyl)-1-methyl-1H-1,2,3-triazole-4-carboxamide] | –
80 to 100 | 80 to 100 | CN(c1nccc(Nc2cc(C3CC3)[nH]n2)n1)[C@H]1CC[C@H](NC(=O)c2cn3cccnc3n2)CC1 [Compound 141, N-((1R,4R)-4-((4-((5-cyclopropyl-1H-pyrazol-3-yl)amino)pyrimidin-2-yl)(methyl)amino)cyclohexyl)imidazo[1,2-a]pyrimidine-2-carboxamide] | –
80 to 100 | 80 to 100 | CN(c1nccc(Nc2cc(C3CC3)[nH]n2)n1)[C@H]1CC[C@H](NC(=O)c2nc3ccccn3n2)CC1 [Compound 142, N-((1R,4R)-4-((4-((5-cyclopropyl-1H-pyrazol-3-yl)amino)pyrimidin-2-yl)(methyl)amino)cyclohexyl)-[1,2,4]triazolo[1,5-a]pyridine-2-carboxamide] | –

Structure (SMILES) | inhibition at 2 µM ([1]; SKNBE2, 6 h) [%] | inhibition at 2 µM [2] [%] | inhibition at 2 µM ([1]; 6 h) [%]
CN(c1nccc(Nc2cc(C3CC3)[nH]n2)n1)C1CCC(CC(=O)NC2Cc3cc(F)c(F)cc3C2)CC1 (stereo not shown) [Compound 134, 2-(4-((4-((5-cyclopropyl-1H-pyrazol-3-yl)amino)pyrimidin-2-yl)(methyl)amino)cyclohexyl)-N-(5,6-difluoro-2,3-dihydro-1H-inden-2-yl)acetamide] | – | 80 to 100 | 20 to 49
CN(c1nccc(Nc2cc(C3CC3)[nH]n2)n1)[C@H]1CC[C@H](NC(=O)c2cccc(C#N)c2)CC1 [Compound 136, 3-cyano-N-((1R,4R)-4-((4-((5-cyclopropyl-1H-pyrazol-3-yl)amino)pyrimidin-2-yl)(methyl)amino)cyclohexyl)benzamide] | – | 80 to 100 | 50 to 79
CN(c1cc(C2CCCC2)[nH]n1)c1ccnc(N(C)C2CCC(CC(=O)NC3Cc4ccc(C#N)cc4C3)CC2)n1 (stereo not shown) [Compound 138, N-(5-cyano-2,3-dihydro-1H-inden-2-yl)-2-(4-((4-((5-cyclopentyl-1H-pyrazol-3-yl)(methyl)amino)pyrimidin-2-yl)(methyl)amino)cyclohexyl)acetamide] | – | < 20 | < 20
